Measurements as given in PubChem BioAssay AID192 (DTP/NCI, 2004).
Values joined by “and” are separate entries in the source; they are usually repeats but may differ in a detail not shown here. Equal entries are not always repeated. Inconclusive results and toxic doses are left out.

System: BDF1 mice, B16 melanoma ip, median survival T/C
Assay: NCI In Vivo Anticancer Drug Screen. Data for tumor model B16 Melanoma (intraperitoneal) in B6D2F1 (BDF1) mice
Settings: endpoint: median survival time, higher = longer survival
In short: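 Mice with transplantable tumors; drug vs vehicle groups; endpoint survival or tumor size; value = T/C.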

[1] = dose: 6.25 mg/kg/injection, schedule: Q01DX009 (ip), vehicle: saline with Tween-80
[2] = dose: 12.5 mg/kg/injection, schedule: Q01DX009 (ip), vehicle: saline with Tween-80
[3] = dose: 25.0 mg/kg/injection, schedule: Q01DX009 (ip), vehicle: saline with Tween-80
[4] = dose: 50.0 mg/kg/injection, schedule: Q01DX009 (ip), vehicle: saline with Tween-80
[5] = dose: 6.25 mg/kg/injection, schedule: Q01DX009 (ip), vehicle: Klucel (hydroxypropylcellulose) (HPC)
[6] = dose: 12.5 mg/kg/injection, schedule: Q01DX009 (ip), vehicle: Klucel (hydroxypropylcellulose) (HPC)
[7] = dose: 25.0 mg/kg/injection, schedule: Q01DX009 (ip), vehicle: Klucel (hydroxypropylcellulose) (HPC)
[8] = dose: 50.0 mg/kg/injection, schedule: Q01DX009 (ip), vehicle: Klucel (hydroxypropylcellulose) (HPC)
[9] = dose: 100.0 mg/kg/injection, schedule: Q01DX009 (ip), vehicle: Klucel (hydroxypropylcellulose) (HPC)
[10] = dose: 200.0 mg/kg/injection, schedule: Q01DX009 (ip), vehicle: Klucel (hydroxypropylcellulose) (HPC)

CC(=O)[C@H]1CC[C@H]2[C@@H]3CCC4=CC(=O)CC[C@]4(C)[C@H]3CC[C@]12C
T/C (dose: 12.5 mg/kg/injection, schedule: Q02DX009 (ip), vehicle: Klucel (hydroxypropylcellulose) (HPC)): 104 % of control | T/C (dose: 25.0 mg/kg/injection, schedule: Q02DX009 (ip), vehicle: Klucel (hydroxypropylcellulose) (HPC)): 96 % of control | T/C (dose: 50.0 mg/kg/injection, schedule: Q02DX009 (ip), vehicle: Klucel (hydroxypropylcellulose) (HPC)): 100 % of control | T/C (dose: 100.0 mg/kg/injection, schedule: Q02DX009 (ip), vehicle: Klucel (hydroxypropylcellulose) (HPC)): 91 % of control | T/C (dose: 200.0 mg/kg/injection, schedule: Q02DX009 (ip), vehicle: Klucel (hydroxypropylcellulose) (HPC)): 120 % of control | T/C (dose: 400.0 mg/kg/injection, schedule: Q02DX009 (ip), vehicle: Klucel (hydroxypropylcellulose) (HPC)): 104 % of control

CCCCCCCC(=O)N/N=C(\CO)[C@]1(O)Cc2c(O)c3c(c(O)c2[C@@H](OC2CC(N)C(O)C(C)O2)C1)C(=O)c1c(OC)cccc1C3=O (some centres undefined)
T/C (dose: 3.13 mg/kg/injection, schedule: Q01DX001 (ip), vehicle: water): 168 % of control | T/C (dose: 6.25 mg/kg/injection, schedule: Q01DX001 (ip), vehicle: water): 157 % of control and 200 % of control | T/C (dose: 12.5 mg/kg/injection, schedule: Q01DX001 (ip), vehicle: water): 173 % of control and 212 % of control | T/C (dose: 25.0 mg/kg/injection, schedule: Q01DX001 (ip), vehicle: water): 174 % of control and 220 % of control and 231 % of control | T/C (dose: 50.0 mg/kg/injection, schedule: Q01DX001 (ip), vehicle: water): 91 % of control and 228 % of control and 236 % of control

CCn1cnc2c(=S)nc[nH]c21
T/C [1]: 97 % of control | T/C [2]: 86 % of control | T/C [3]: 95 % of control | T/C [4]: 89 % of control and 104 % of control

S=C=NCC(Br)CBr (centres undefined)
T/C [5]: 86 % of control | T/C [6]: 86 % of control

O=C(O)C1(C(=O)O)CCCCC1.[NH2-].[NH2-].[Pt+2]
T/C (dose: 6.25 mg/kg/injection, schedule: Q01DX009 (ip), vehicle: saline): 159 % of control | T/C (dose: 12.5 mg/kg/injection, schedule: Q01DX009 (ip), vehicle: saline): 188 % of control

C[N+](C)(C)Cc1ccccc1
T/C [5]: 109 % of control | T/C [6]: 107 % of control | T/C [7]: 101 % of control

Cc1ccc(NC(=O)COc2ccc(Cl)cc2)c(C)c1
T/C (dose: 3.13 mg/kg/injection, schedule: Q01DX009 (ip), vehicle: saline with Tween-80): 119 % of control | T/C [1]: 107 % of control | T/C [2]: 97 % of control | T/C [3]: 95 % of control | T/C [4]: 91 % of control

O=C(O)[C@@H]1[C@H](C(=O)O)[C@H](C(=O)O)C[C@@H]1C(=O)O
T/C (dose: 100.0 mg/kg/injection, schedule: Q01DX009 (ip), vehicle: saline): 102 % of control | T/C (dose: 200.0 mg/kg/injection, schedule: Q01DX009 (ip), vehicle: saline): 94 % of control | T/C (dose: 400.0 mg/kg/injection, schedule: Q01DX009 (ip), vehicle: saline): 96 % of control

CC(=O)OCC1OC(n2cc(CBr)nn2)C(OC(C)=O)C(OC(C)=O)C1OC(C)=O (centres undefined)
T/C (dose: 3.12 mg/kg/injection, schedule: Q01DX009 (ip), vehicle: Klucel (hydroxypropylcellulose) (HPC)): 97 % of control | T/C [5]: 98 % of control | T/C [6]: 108 % of control | T/C [7]: 100 % of control | T/C [8]: 98 % of control

CC1=NN(c2ccccc2)C(=O)C1CC1C(=O)N(c2ccccc2)N=C1C (centres undefined)
T/C (dose: 100.0 mg/kg/injection, schedule: Q01DX009 (ip), vehicle: saline with Tween-80): 95 % of control | T/C (dose: 200.0 mg/kg/injection, schedule: Q01DX009 (ip), vehicle: saline with Tween-80): 95 % of control | T/C (dose: 400.0 mg/kg/injection, schedule: Q01DX009 (ip), vehicle: saline with Tween-80): 89 % of control

COc1ccc(C(C(N)=O)N2CCOCC2)cc1 (centres undefined)
T/C [7]: 92 % of control | T/C [8]: 89 % of control | T/C [9]: 87 % of control | T/C (dose: 100.0 mg/kg/injection, schedule: Q04DX003 (ip), vehicle: Klucel (hydroxypropylcellulose) (HPC)): 92 % of control | T/C [10]: 86 % of control | T/C (dose: 200.0 mg/kg/injection, schedule: Q04DX003 (ip), vehicle: Klucel (hydroxypropylcellulose) (HPC)): 95 % of control | T/C (dose: 400.0 mg/kg/injection, schedule: Q04DX003 (ip), vehicle: Klucel (hydroxypropylcellulose) (HPC)): 95 % of control

O=c1oc(-c2ccc(Cl)cc2)nc2cc(Cl)ccc12
T/C [5]: 99 % of control | T/C [6]: 93 % of control | T/C [7]: 105 % of control and 106 % of control

CN(C(=N)N)c1ccc(C(=O)Oc2ccc([N+](=O)[O-])cc2)cc1
T/C [8]: 104 % of control | T/C [9]: 101 % of control | T/C [10]: 103 % of control

CCOc1ccc(NC(=O)COc2ccc(Cl)cc2)cc1
T/C [9]: 103 % of control | T/C [10]: 109 % of control | T/C (dose: 400.0 mg/kg/injection, schedule: Q01DX009 (ip), vehicle: Klucel (hydroxypropylcellulose) (HPC)): 93 % of control
